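These data come from cells grown in 96-well plates and exposed to compound for 48 hours at five concentrations. Abbreviation: GI50, concentration required for 50% inhibition of growth.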 Activity calls are given as the source filed them. Cut-off read from the data, not from the text of the source: active = GI50 up to about 1.1 µM and inactive = higher.
What was measured:
Test in all cases: DTP human tumour cell line panel, 48 h
A549 = system: A549
CCRF-CEM = system: CCRF-CEM
HOP-18 = system: HOP-18
HOP-62 = system: HOP-62
LXFL 529 = system: LXFL 529
M19-MEL = system: M19-MEL
MOLT-4 = system: MOLT-4
SK-OV-3 = system: SK-OV-3
SNB-78 = system: SNB-78
SW-620 = system: SW-620
U-251 = system: U-251
UACC-257 = system: UACC-257
UACC-62 = system: UACC-62
DMS-114 = system: DMS-114
NCI-H226 = system: NCI-H226
SF-539 = system: SF-539
XF498 = system: XF498
DU-145 = system: DU-145
MDA-MB-435 = system: MDA-MB-435
NCI/ADR-RES = system: NCI/ADR-RES

Measured: GI50

O=C1Nc2ccc(Br)cc2/C1=N/Nc1ccc([N+](=O)[O-])cc1[N+](=O)[O-]
inactive: A549 5.47 µM | CCRF-CEM 3.02 µM | HOP-18 1.12 µM | HOP-62 5.7 µM | LXFL 529 3.66 µM | M19-MEL 3.54 µM | MOLT-4 3.44 µM | SK-OV-3 12.5 µM | SNB-78 4.51 µM | SW-620 3.18 µM | U-251 4.22 µM | UACC-257 3.89 µM | UACC-62 3.85 µM

COc1ccc(/C=N/C23CC4CC(CC(C4)C2)C3)cc1
inactive: A549 > 100 µM | CCRF-CEM > 100 µM | DMS-114 > 100 µM | HOP-62 > 100 µM | M19-MEL > 10 µM | MOLT-4 > 100 µM | NCI-H226 > 100 µM | SF-539 > 100 µM | SK-OV-3 > 100 µM | SNB-78 > 100 µM | SW-620 > 100 µM | U-251 > 100 µM | UACC-257 > 100 µM | UACC-62 > 100 µM

CS(=O)(=O)NNS(=O)(=O)c1cccc([N+](=O)[O-])c1
inactive: A549 > 100 µM | CCRF-CEM > 100 µM | DMS-114 > 100 µM | HOP-62 > 100 µM | LXFL 529 > 100 µM | M19-MEL > 100 µM | MOLT-4 > 100 µM | NCI-H226 > 100 µM | SF-539 > 100 µM | SW-620 > 100 µM | U-251 > 100 µM | UACC-257 > 100 µM | UACC-62 > 100 µM | XF498 > 100 µM

C1CCN2CC3CONC3C2C1 (stereo not drawn)
inactive: A549 > 100 µM | CCRF-CEM > 100 µM | DMS-114 > 100 µM | HOP-62 > 100 µM | LXFL 529 > 100 µM | M19-MEL > 100 µM | MOLT-4 > 100 µM | NCI-H226 > 100 µM | SF-539 > 100 µM | SNB-78 > 100 µM | SW-620 > 100 µM | U-251 > 100 µM | UACC-257 > 100 µM | UACC-62 > 100 µM | XF498 > 100 µM

CC1CC(=O)C2CC(CO)=CCCC2C1(C)CC/C(=C/CO)CO (stereo not drawn)
inactive: A549 > 100 µM | CCRF-CEM > 100 µM | DMS-114 > 100 µM | HOP-18 > 100 µM | LXFL 529 > 100 µM | M19-MEL > 100 µM | MOLT-4 > 100 µM | NCI-H226 > 100 µM | SK-OV-3 > 100 µM | SNB-78 > 100 µM | SW-620 > 100 µM | U-251 > 100 µM | UACC-257 > 100 µM | UACC-62 > 100 µM

[N-]=[N+]=NC(c1cn(C2CC(O)C(CO)O2)c(=O)[nH]c1=O)C(Br)I (stereo not drawn)
inactive: A549 > 100 µM | CCRF-CEM > 100 µM | DMS-114 > 100 µM | HOP-62 > 100 µM | LXFL 529 > 100 µM | M19-MEL > 100 µM | MOLT-4 > 100 µM | NCI-H226 > 100 µM | SF-539 > 100 µM | SK-OV-3 > 100 µM | SNB-78 > 100 µM | SW-620 > 100 µM | U-251 > 100 µM | UACC-62 > 100 µM

O=c1c2cccnc2ncn1CCN1CCCC1
inactive: A549 > 100 µM | CCRF-CEM > 100 µM | DMS-114 > 100 µM | HOP-62 > 100 µM | LXFL 529 > 100 µM | M19-MEL > 100 µM | MOLT-4 > 100 µM | NCI-H226 > 100 µM | SF-539 > 100 µM | SK-OV-3 > 100 µM | SNB-78 > 100 µM | SW-620 > 100 µM | U-251 > 100 µM | UACC-62 > 100 µM | XF498 > 100 µM

BrC1=CCC23CC=C(Br)[C@H]4CC2(COC3)C[C@@H]1O4 (stereo partly drawn)
inactive: A549 > 100 µM | CCRF-CEM 24.4 µM | DMS-114 28.4 µM | HOP-62 > 100 µM | LXFL 529 40.3 µM | M19-MEL > 100 µM | MOLT-4 25.8 µM | NCI-H226 44.1 µM | SF-539 84.9 µM | SNB-78 35.2 µM | SW-620 55 µM | U-251 79.3 µM | UACC-62 46.1 µM | XF498 76.6 µM

NC1CNC(=O)c2c(Cl)sc(Cl)c21 (stereo not drawn)
inactive: A549 > 100 µM | CCRF-CEM > 10 µM | DU-145 > 100 µM | HOP-62 > 100 µM | MDA-MB-435 > 100 µM | MOLT-4 78.5 µM | NCI-H226 > 100 µM | NCI/ADR-RES > 100 µM | SF-539 > 100 µM | SK-OV-3 > 100 µM | SW-620 > 100 µM | U-251 > 100 µM | UACC-257 > 100 µM | UACC-62 > 100 µM

C=C1C[C@]23C[C@@]1(O)CC[C@H]2[C@@]12C=C[C@H](O)[C@@](C)(C(=O)O1)[C@H]2[C@@H]3C(=O)O [GIBBERELLIN A3]
inactive: A549 > 100 µM | CCRF-CEM > 100 µM | DMS-114 > 100 µM | HOP-62 > 100 µM | M19-MEL > 100 µM | MOLT-4 > 100 µM | NCI-H226 > 100 µM | SF-539 > 100 µM | SK-OV-3 > 100 µM | SNB-78 > 100 µM | SW-620 > 100 µM | U-251 > 100 µM | UACC-257 > 100 µM | UACC-62 > 100 µM | XF498 > 100 µM

O=C(c1ccccc1)c1c(CC(O)c2ccccn2)n(C(=O)c2ccccc2)c2ccccc12 (stereo not drawn)
inactive: A549 25.3 µM | CCRF-CEM 25.6 µM | DMS-114 22 µM | HOP-62 17.9 µM | LXFL 529 28.5 µM | M19-MEL 20.8 µM | MOLT-4 17.1 µM | NCI-H226 20.5 µM | SF-539 16.7 µM | SW-620 31.4 µM | U-251 25.1 µM | UACC-257 17.7 µM | UACC-62 15.7 µM | XF498 20.4 µM

COC(=O)c1c(C)[nH]c2c1cc(O)c1nc(C)c(C)nc12
inactive: A549 > 100 µM | CCRF-CEM > 100 µM | DU-145 > 100 µM | HOP-62 18.7 µM | MDA-MB-435 > 100 µM | MOLT-4 > 100 µM | NCI-H226 > 100 µM | NCI/ADR-RES > 100 µM | SF-539 34.3 µM | SK-OV-3 70 µM | SW-620 > 100 µM | U-251 60.3 µM | UACC-257 > 100 µM | UACC-62 43 µM

CCOC(=O)c1c(-c2ccc(Br)cc2)ccn1C
inactive: A549 > 10 µM | CCRF-CEM > 10 µM | DU-145 > 10 µM | HOP-62 > 10 µM | MDA-MB-435 > 10 µM | MOLT-4 > 10 µM | NCI-H226 > 10 µM | NCI/ADR-RES > 10 µM | SF-539 > 10 µM | SK-OV-3 > 10 µM | SW-620 > 10 µM | U-251 > 10 µM | UACC-257 > 10 µM | UACC-62 > 10 µM

CCCCCCCCCCCc1noc2c1C(=O)C(O)CC2 (stereo not drawn)
inactive: A549 22 µM | CCRF-CEM 25.1 µM | HOP-62 45.8 µM | LXFL 529 16.6 µM | MOLT-4 22.3 µM | NCI-H226 16.1 µM | SF-539 22.2 µM | SK-OV-3 25.7 µM | SNB-78 24.4 µM | SW-620 18 µM | U-251 14.6 µM | UACC-257 20.5 µM | UACC-62 16.4 µM | XF498 13.6 µM

C=C(C)C(O)C(O)C[C@@H](C)C1CC[C@]23C[C@]12CCC1[C@@]2(C)CCC(OC(C)=O)C(C)(C)C2CC(OC2OC(CO)C(O)C(O)C2O)[C@]13C (stereo partly drawn)
inactive: A549 50 µM | CCRF-CEM 14.2 µM | DU-145 21.2 µM | HOP-62 16.7 µM | MDA-MB-435 17.5 µM | MOLT-4 18.5 µM | NCI-H226 20.6 µM | NCI/ADR-RES > 100 µM | SF-539 14.6 µM | SK-OV-3 20.9 µM | SW-620 16.7 µM | U-251 15.7 µM | UACC-257 17 µM | UACC-62 17.7 µM

O=C(c1ccco1)C1CC(c2ccc3ccccc3c2O)=NN1 (stereo not drawn)
inactive: A549 47 µM | CCRF-CEM 16.8 µM | DU-145 > 100 µM | HOP-62 > 100 µM | MDA-MB-435 56.6 µM | MOLT-4 36.7 µM | NCI-H226 > 100 µM | NCI/ADR-RES 91.4 µM | SF-539 > 100 µM | SK-OV-3 > 100 µM | SW-620 84.1 µM | U-251 > 100 µM | UACC-257 62.2 µM | UACC-62 > 100 µM

COc1ccc2c(C3(O)CCNCC3)c[nH]c2c1
inactive: A549 > 100 µM | CCRF-CEM > 100 µM | HOP-18 > 100 µM | HOP-62 > 100 µM | LXFL 529 > 100 µM | M19-MEL > 100 µM | MOLT-4 > 100 µM | SF-539 > 100 µM | SK-OV-3 > 100 µM | SW-620 > 100 µM | U-251 > 100 µM | UACC-62 > 100 µM

NC(CCc1ncc(C(=O)O)s1)C(=O)O (stereo not drawn)
inactive: A549 > 100 µM | CCRF-CEM > 100 µM | DMS-114 > 100 µM | HOP-18 > 100 µM | LXFL 529 > 100 µM | M19-MEL > 100 µM | MOLT-4 > 100 µM | NCI-H226 > 100 µM | SF-539 > 100 µM | SK-OV-3 > 100 µM | SNB-78 > 100 µM | SW-620 > 100 µM | U-251 > 100 µM | UACC-257 > 100 µM | UACC-62 > 100 µM

Cc1cccc(NC(=O)/C=C/c2ccc(N(CCC#N)CCC#N)cc2C)c1
inactive: A549 > 100 µM | CCRF-CEM 33 µM | DMS-114 49.9 µM | HOP-62 > 100 µM | LXFL 529 23.4 µM | M19-MEL > 100 µM | MOLT-4 > 100 µM | NCI-H226 > 100 µM | SF-539 > 100 µM | SK-OV-3 > 100 µM | SW-620 > 100 µM | U-251 > 100 µM | UACC-257 > 100 µM | UACC-62 28 µM | XF498 > 100 µM
